Converted amounts (≈) assume the structure as drawn. Where two headings read alike, the source gives them in different places.
Tests used:
[1] = cited from earlier work; for solubility in water (in words): qualitative statement (b7: according to Merck Index); for solubility: in water, stated in text without method; for water solubility relative to aglyconic form of isoflavones: derivatives reported in several studies
[2] = Solubility of isoflavone phosphate conjugates and aglycones in DI water (25° C.); format: physicochemical; settings: for solubility relative to genistein and daidzein: 25° C. water, phosphate vs aglycone; for Solubility enhancement ratio: phosphate conjugate vs aglycone
Description: This can increase the application of isoflavones in pharmaceuticals, food, and cosmetics.

[3] = DI water, 25° C., read-out: Water solubility

SMILES | solubility in water (in words) [1] | solubility [1] | water solubility relative to aglyconic form of isoflavones [1] | further results
O=c1c(O)c(-c2ccc(O)cc2)oc2cc(O)cc(O)c12 [Kaempferol, kaempferol] | barely insoluble in water |  |  | 
O=C1C[C@@H](c2ccc(O)cc2)Oc2cc(O)cc(O)c21 [Naringenin, naringenin] |  | 45 µg/mL (≈ 165 µM) |  | 
COc1ccc([C@@H]2CC(=O)c3c(O)cc(O)cc3O2)cc1O [hesperetin] |  | 1.4 µg/mL (≈ 4.63 µM) |  | 
O=c1c(-c2ccc(O)cc2)coc2cc(O)ccc12 [Daidzein, daidzein] | practically insoluble in water | 8.2 µg/mL (≈ 32.3 µM) |  | solubility ([2]; 25 °C, water): 1.36 µg/mL (≈ 5.35 µM)
O=c1c(-c2ccc(O)cc2)coc2cc(O)c(O)c(O)c12 [6-hydroxy genistein] |  |  | higher water solubility | 
O=c1c(-c2ccc(O)cc2)coc2cc(OP(=O)(O)O)cc(O)c12 [Genistein-7-O-phosphate, genistein-7-O-phosphate] |  |  |  | solubility relative to genistein and daidzein [2]: ten million times higher; solubility [2, 3]: 100000 µg/mL (≈ 286000 µM); Solubility enhancement ratio ([2]; DI water, 25° C.): 1.2 × 10^5
O=c1c(-c2ccc(O)cc2)coc2c(O)c(O)cc(O)c12 [8-hydroxy genistein] |  |  | higher water solubility | 
O=c1c(O)c(-c2ccc(O)c(O)c2)oc2cc(O)cc(O)c12 [quercetin] | barely insoluble in water |  |  | 
O=c1c(-c2ccc(O)cc2)coc2cc(OP(=O)(O)O)ccc12 [Daidzein-7-O-phosphate, daidzein-7-O-phosphate] |  |  |  | solubility relative to genistein and daidzein [2]: ten million times higher; solubility [2, 3]: 179000 µg/mL (≈ 536000 µM); Solubility enhancement ratio ([2]; DI water, 25° C.): 1.3 × 10^5
O=c1c(-c2ccc(O)cc2)coc2cc(OS(=O)(=O)O)ccc12 [daidzein-7-O-sulfate] |  |  | higher water solubility | 
O=c1c(-c2ccc(O)cc2)coc2cc(O)cc(O)c12 [Genistein, genistein] | practically insoluble in water | 0.8 µg/mL (≈ 2.96 µM) |  | solubility [2, 3]: 0.82 µg/mL (≈ 3.03 µM)
O=c1c(-c2ccc(O)cc2O)coc2cc(O)cc(O)c12 [2′-hydroxy genistein] |  |  | higher water solubility | 

Reference: patent US10421768B2, “Method of biotransformation of benzopyrone compounds into the corresponding phosphate-conjugated derivatives” (National Taiwan University, priority 2016, dated 2019)
